The source of these data is patent publication US10940139B2, “Compounds that interact with the Ras superfamily for the treatment of cancers, inflammatory diseases, rasopathies, and fibrotic disease” (Shy Therapeutics LLC, priority 2017, dated 2021).

In experiment [1] the test system is MIA-PACA2 pancreatic cancer cell lines. Put plainly: Cell proliferation assay, alternate assay conditions (DAPI fluorescence). Particulars: Homo sapiens, MIA PaCa-2; for inhibition at 10 µM: * = tested at 10 μM, alternate conditions, MIA-PACA2; for IC50: MIA-PACA2, same assay as the % inhibition (alternate conditions). It is filed as cell-based. On the procedure: Cell lines: Tumor-derived pancreatic cancer cell lines MIA-PACA2 were purchased from ATCC and grown in complete DMEM-High Glucose medium supplemented with penicillin (100 U/mL), streptomycin (100 μg/mL), and 10% heat-inactivated FBS at 37° C. in a humidified incubator with 5% CO2.
Method: Cells are plated at 4000 cells/well density in 96-wells plate. The next day tested small molecules are added to the cells in the final concentration of 10 μM in the presence of 0.3% DMSO and 10% FBS. After small molecules addition, cells are incubated for 4 days at 37° C. in a humidified incubator with 5% CO2. For IC50 value determination, serial dilutions of compounds were added to cells under the same conditions.
Assay: At the end of the incubation period, cell cultures are fixed with a 50-50 mixture (v/v) acetone-methanol for 10 minutes at −20° C., followed by rehydration in PBS for 10 minutes at room temperature. After rehydration, cells are stained with DAPI (1 μg/ml) in PBS for 10 minutes at room temperature, followed by 3 washes with PBS. After staining, DAPI fluorescence is recorded (358 nm excitation/461 nm emission) with the 96-well plate reader Molecular Devices Spectramax M3; degree of small mole-cule-dependent proliferation inhibition is calculated from raw data assuming No Serum cells value as 100%.

The target of another experiment is KRas G12D mutant protein (Homo sapiens (Human), UniProt P01116, G12D). Put plainly: Ras GTP binding domain inhibition assay (labeled GTP). As to conditions: 20 μM compound.
KRas G12D mutant protein, sequence (P01116-2 other isoform, or with tags, fused parts or gaps G12D): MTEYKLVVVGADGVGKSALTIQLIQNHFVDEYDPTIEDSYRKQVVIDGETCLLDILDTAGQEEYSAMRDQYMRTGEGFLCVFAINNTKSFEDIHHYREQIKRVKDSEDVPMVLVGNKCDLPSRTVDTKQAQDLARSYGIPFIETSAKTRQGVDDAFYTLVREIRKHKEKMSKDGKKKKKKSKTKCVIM
The target in another experiment is KRas G12C mutant (Homo sapiens (Human), UniProt P01116, G12C). The experiment is described as above. As to conditions: 20 μM compound. In short, it runs like this:
(§1)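 His-tagged KRas protein (3-10 μg/ml) was captured overnight at 4° C on nickel-coated wells in 50 mM Tris pH 7.5, 1 mM MgCl2, 1 mM DTT. Bound labeled GTP was read by fluorescence after washing.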

The target in experiment [2] is KRas G12C/Q61H double mutant (Homo sapiens (Human), UniProt P01116, G12C/Q61H). The experiment is described as above. Particulars: 20 μM compound. The method in brief: as §1
KRas G12C/Q61H double mutant, sequence (P01116-2 other isoform, or with tags, fused parts or gaps G12C/Q61H): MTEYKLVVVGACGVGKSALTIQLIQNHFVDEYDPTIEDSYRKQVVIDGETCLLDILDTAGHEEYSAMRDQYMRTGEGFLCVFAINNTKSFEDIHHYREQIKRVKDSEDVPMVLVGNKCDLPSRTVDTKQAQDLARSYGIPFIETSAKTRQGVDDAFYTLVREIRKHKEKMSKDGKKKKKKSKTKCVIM
In experiment [3] the target is KRas G12D/Q61H double mutant (Homo sapiens (Human), UniProt P01116, G12D/Q61H). The experiment is described as above. As to conditions: 20 μM compound. In short, it runs like this:
as §1

Another experiment deals with KRas Q61H mutant (Homo sapiens (Human), UniProt P01116, Q61H). The description is as above. As to conditions: 20 μM compound. The method in brief:
as §1

The target in another experiment is KRas wild type (Homo sapiens (Human), UniProt P01116). The description is as above. As to conditions: 20 μM compound. The method in brief:
as §1

Where [4] appears, read: read-out: % Inhibition at 20 μM KRas G12D.
[5] abbreviates: read-out: % Inhibition at 20 μM KRas G12C.
Where [6] appears, read: read-out: % Inhibition at 20 μM KRas G12C Q61H.
Where [7] appears, read: read-out: % Inhibition at 20 μM KRas G12D Q61H.
Where [8] appears, read: read-out: % Inhibition at 20 μM KRas Q61H.
[9] abbreviates: read-out: % Inhibition at 20 μM KRas wild type.

Where two headings read alike, the source gives them in different places. Where only a bound is given, the exact number is not on record here.

KRas G12D/Q61H double mutant, sequence (P01116-2 other isoform, or with tags, fused parts or gaps G12D/Q61H): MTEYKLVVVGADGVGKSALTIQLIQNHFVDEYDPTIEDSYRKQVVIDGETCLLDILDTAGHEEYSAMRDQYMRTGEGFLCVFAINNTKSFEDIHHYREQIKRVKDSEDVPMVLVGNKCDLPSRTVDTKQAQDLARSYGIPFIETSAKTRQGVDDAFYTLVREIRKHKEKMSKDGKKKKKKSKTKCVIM
KRas G12C mutant, sequence (P01116-2 other isoform, or with tags, fused parts or gaps G12C): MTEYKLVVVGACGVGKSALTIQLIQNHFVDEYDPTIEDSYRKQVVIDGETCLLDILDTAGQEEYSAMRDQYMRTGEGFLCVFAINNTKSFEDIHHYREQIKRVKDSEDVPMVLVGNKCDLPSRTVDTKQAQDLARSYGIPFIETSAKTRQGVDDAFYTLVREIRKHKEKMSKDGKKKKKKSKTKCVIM
KRas wild type, sequence (P01116-2 other isoform, or with tags, fused parts or gaps): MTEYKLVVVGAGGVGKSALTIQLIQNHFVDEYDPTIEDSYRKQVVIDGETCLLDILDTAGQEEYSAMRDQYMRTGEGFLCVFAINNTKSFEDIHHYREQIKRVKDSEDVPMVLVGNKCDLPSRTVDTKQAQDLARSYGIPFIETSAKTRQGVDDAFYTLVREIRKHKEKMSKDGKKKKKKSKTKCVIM
KRas Q61H mutant, sequence (P01116-2 other isoform, or with tags, fused parts or gaps Q61H): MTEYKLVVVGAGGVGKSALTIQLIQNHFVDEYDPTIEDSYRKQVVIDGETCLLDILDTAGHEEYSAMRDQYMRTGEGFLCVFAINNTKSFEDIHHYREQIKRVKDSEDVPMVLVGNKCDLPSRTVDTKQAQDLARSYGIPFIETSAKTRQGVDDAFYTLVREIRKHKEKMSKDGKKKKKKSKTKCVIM

In the case of `OCC1(c2ccc(-c3nc(-c4ccccn4)nc(-c4ccc(C5(CO)CC5)cc4)c3Oc3ccccc3)cc2)CC1` [drawing 1834], in experiment [1], the inhibition at 10 µM is 76 to 100%.
In experiment [1], `CC(C)COc1ccc(-c2csc3c(O)nc(-c4nccn4C)nc23)cn1` [drawing 1914] returned an inhibition at 10 µM of 76 to 100% and an IC50 of 100 to 500 nM.
`Nc1nc(O)c2sc(-c3cccc(C(=O)NCc4cccc(O)n4)c3)cc2n1` [drawing 1848] returned an inhibition at 10 µM in experiment [1] of 1 to 25%.
`Cn1ccnc1-c1nc(O)c2scc(-c3ccc(C(C)(C)C)cc3)c2n1` [drawing 1921] came in with an inhibition at 10 µM in experiment [1] of 76 to 100%.
For `Oc1nc(-c2ccccn2)nc2c(-c3cc(CN4CCCC4)ccc3F)csc12` [drawing 1799], in experiment [1], the inhibition at 10 µM fell in the range of 76 to 100%.
For `COC(=O)c1nc(-c2ccccn2)nc(O)c1O` [drawing 1849], in experiment [1], the inhibition at 10 µM was in the range of 25 to 50%.
In experiment [1], `Nc1nc(-c2ccccn2)nc(C(=O)NCCc2ccncc2)c1Oc1ccccc1` [drawing 1853] gave an inhibition at 10 µM of 76 to 100%.
Same read-out and setting: under `CCN(CC)CCOc1nc(-c2nccn2C)nc2sc(-c3ccccc3)c(-c3ccccc3)c12` [drawing 1875] stands 76 to 100%; under `Cn1ccnc1-c1nc(NCCOC2CC2)c2c(-c3ccccc3)c(-c3ccccc3)sc2n1` [drawing 1878], 76 to 100%.
Still for that read-out and setting: under `COc1cnc(CNC(=O)c2cc3nc(-c4ccccn4)nc(O)c3s2)[nH]c1=O` [drawing 1823] stands 25 to 50%.
On to `Cc1sc2c(O)nc(-c3nccn3C)nc2c1-c1ccccc1Cl` [drawing 1904], for which, in experiment [1], the inhibition at 10 µM is 76 to 100% and the IC50 was 100 to 500 nM.
`Oc1nc(-c2ccccn2)nc2c(Br)c(-c3ccccc3)sc12` [drawing 1855] yielded an inhibition at 10 µM in experiment [1] of 76 to 100%.
In the case of `COc1ccc(-c2c(C)sc3c(O)nc(-c4nccn4C)nc23)cn1` [drawing 1903], in experiment [1], the inhibition at 10 µM fell in the range of 25 to 50%.
On the same count and under the same terms, with `Cc1sc2c(O)nc(-c3ccccn3)nc2c1-c1ccncc1` [drawing 1806] the figure was 76 to 100%; with `Oc1nc(-c2ccccn2)nc2c(-c3cncc(C(F)F)c3)csc12` [drawing 1804], 76 to 100%.
As for `COCCCNc1nc(-c2nccn2C)nc2sc(-c3ccccc3)c(-c3ccccc3)c12` [drawing 1872], in experiment [1], the inhibition at 10 µM was in the range of 76 to 100% and the IC50 was in the range of 501 to 1000 nM.
As for `COCCNc1nc(-c2ccncn2)nc2sc(-c3ccccc3)c(-c3ccccc3)c12` [drawing 1876], in experiment [1], the inhibition at 10 µM is 51 to 75%.
Consider `NC(=O)C1CCCN1C(=O)c1cccc(-c2cc3nc(N)nc(O)c3s2)c1` (stereo not drawn) [drawing 1846], for which the inhibition at 10 µM in experiment [1] lay within 51 to 75%.
`CC(C)(C)c1sc2c(O)nc(-c3ccccn3)nc2c1Br` [drawing 1856]: the inhibition at 10 µM in experiment [1] lay in the range of 76 to 100%.
On the same count and under the same terms, with `Cc1sc2c(O)nc(-c3ccccn3)nc2c1C(=O)N1CCN(c2ccccc2)CC1` [drawing 1807] the figure was 76 to 100%.
For the compound `COCCNc1nc(-c2cn(C)cn2)nc2sc(-c3ccccc3)c(-c3ccccc3)c12` [drawing 1885], in experiment [1], the inhibition at 10 µM was 76 to 100% and the IC50 is greater than 1000 nM.
`Oc1nc(-c2ccccn2)nc2c(-c3cncnc3)csc12` [drawing 1801] returned an inhibition at 10 µM in experiment [1] of 0%.
On the same count and under the same terms, with `COCC(C)Nc1nc(-c2ccccn2)nc(C(=O)NCCCc2c[nH]cn2)c1Oc1ccccc1` (stereo not drawn) [drawing 1852] the figure was 76 to 100%.
Turning to `COCCNc1nc(-c2nccn2C)nc2sc(-c3ccc(OC)cc3)c(-c3ccccc3)c12` [drawing 1899], in experiment [1], the inhibition at 10 µM fell in the range of 76 to 100% and the IC50 was 100 to 500 nM.
Compound `Oc1nc(-c2ccccn2)nc2c(CC3CCNC3)csc12` (stereo not drawn) [drawing 1828] registered an inhibition at 10 µM in experiment [1] of 0%.
In the case of `COc1nc(-c2ccccn2)nc(Oc2cccc(C(F)(F)F)c2)c1O` [drawing 1867], the inhibition at 10 µM in experiment [1] was 1 to 25%.
For `COCCNc1nc(-c2cccc(N)n2)nc2sc(-c3ccccc3)c(-c3ccccc3)c12` [drawing 1893], the inhibition at 10 µM in experiment [1] lay in the range of 76 to 100%.
In experiment [1], `COc1cnc(CNC(=O)c2csc3c(O)nc(-c4ccccn4)nc23)[nH]c1=O` [drawing 1822] registered an inhibition at 10 µM of 51 to 75%.
`Cc1sc2c(O)nc(-c3ccccn3)nc2c1Br` [drawing 1824] registered an inhibition at 10 µM in experiment [1] of 76 to 100%.
On the same count and under the same terms, with `Cc1ccc(-c2csc3c(O)nc(-c4ccccn4)nc23)cc1` [drawing 1862] the figure was 76 to 100%; with `Nc1nc(O)c2sc(-c3cccc(C(=O)N4CCC(O)C4)c3)cc2n1` (stereo not drawn) [drawing 1845], 1 to 25%.
For `CCC(C)Nc1nc(-c2ccccn2)nc2sc(-c3ccncc3)c(-c3ccccc3)c12` (stereo not drawn), the inhibition at 10 µM in experiment [1] was 51 to 75%.
In turn, `COCCNc1nc(-c2ccccn2)nc2sc(-c3ccccc3)c(-c3ccccn3)c12` [drawing 1922] came in with an inhibition at 10 µM in experiment [1] of 76 to 100%.
In experiment [1], `COCCNc1nc(-c2nccn2C)nc2sc(-c3ccccc3Cl)c(-c3ccccc3)c12` [drawing 1883] had an inhibition at 10 µM of 76 to 100% and an IC50 of 501 to 1000 nM.
With `COc1ccc(CCC(=O)Nc2nc(-c3ccccn3)nc3sccc23)cn1` [drawing 1805], the inhibition at 10 µM in experiment [1] fell in the range of 76 to 100%.
Consider `Oc1nc(-c2ccccn2)nc2c1c(-c1ccccc1)nn2-c1ccccn1` [drawing 1841], for which the inhibition at 10 µM in experiment [1] was 76 to 100%.
The compound `Cn1ccnc1-c1nc(O)c2scc(-c3ccccc3)c2n1` [drawing 1916] returned an inhibition at 10 µM in experiment [1] of 76 to 100%.
Same read-out and setting: with `COCCNc1nc(-c2nccn2C)nc2sc(C3CCOCC3)c(-c3ccccc3)c12` [drawing 1892] the figure was 76 to 100%; with `COc1nc(-c2ccccn2)nc(Oc2cccc(C(F)(F)F)c2)c1OC` [drawing 1854], 76 to 100%.
In turn, `Cc1nn(C(C)C)cc1-c1csc2c(O)nc(-c3ccccn3)nc12` [drawing 1803] displayed an inhibition at 10 µM in experiment [1] of 76 to 100%.
For `COC(C)(C)c1ccc(-c2csc3c(O)nc(-c4nccn4C)nc23)cc1` [drawing 1920], the inhibition at 10 µM in experiment [1] is 76 to 100%.
For the compound `Cn1ccnc1-c1nc(O)c2c(-c3ccccc3)c(-c3ccccc3)sc2n1` [drawing 1838], the inhibition at 10 µM in experiment [1] was 76 to 100%.
As for `COCCNc1nc(-c2nccn2C)nc2sc(-c3cccc(OC)c3)c(-c3ccccc3)c12` [drawing 1888], in experiment [1], the inhibition at 10 µM lay within 76 to 100%.
`Oc1nc(-c2ccccn2)nc2c(C3CCCC3)csc12` [drawing 1812] came in with an inhibition at 10 µM in experiment [1] of 76 to 100%.
`O=C(NCCc1ccncn1)c1csc2nc(-c3ccccn3)nc(N3CCOCC3)c12` [drawing 1796] showed an inhibition at 10 µM in experiment [1] of 1 to 25%.
For the compound `Oc1nc(-c2ccccn2)nc2c(-c3ccccc3F)csc12` [drawing 2868], the inhibition at 20 µM at KRas G12D mutant protein (setting [4]) was 51 to 75%; on KRas G12C mutant (setting [5]) it was 25 to 50%; in experiment [2] (setting [6]), 51 to 75%; in experiment [3] (setting [7]), 51 to 75%; on KRas Q61H mutant (setting [8]), 51 to 75%; on KRas wild type (setting [9]) it was 51 to 75%.
As for `Cc1nn(C(C)C)cc1-c1csc2c(O)nc(-c3ccccn3)nc12` [drawing 3506], the inhibition at 20 µM lay within 51 to 75% at KRas G12D mutant protein (KRas G12D, read-out: % Inhibition at 20 μM of K-Ras mutant and wild-type protein, KRas G12D); 25 to 50% on KRas G12C mutant (KRas G12C, read-out: % Inhibition at 20 μM of K-Ras mutant and wild-type protein, KRas G12C); 51 to 75% in experiment [2] (KRas G12C/Q61H double mutant, read-out: % Inhibition at 20 μM of K-Ras mutant and wild-type protein, KRas G12C Q61H); 51 to 75% in experiment [3] (KRas G12D/Q61H double mutant, read-out: % Inhibition at 20 μM of K-Ras mutant and wild-type protein, KRas G12D Q61H); 51 to 75% at KRas Q61H mutant (KRas Q61H, read-out: % Inhibition at 20 μM of K-Ras mutant and wild-type protein, KRas Q61H); 25 to 50% at KRas wild type (KRas wild type, read-out: % Inhibition at 20 μM of K-Ras mutant and wild-type protein, KRas wild type).
Take `Oc1nc(-c2ccccn2)nc2c(-c3cccc4c3OCO4)csc12` [drawing 2849]: the inhibition at 20 µM on KRas G12D mutant protein (setting [4]) lay in the range of 25 to 50%; on KRas G12C mutant (setting [5]), 25 to 50%; in experiment [2] (setting [6]), 25 to 50%; in experiment [3] (setting [7]), 51 to 75%; on KRas Q61H mutant (setting [8]), 51 to 75%; at KRas wild type (setting [9]), 25 to 50%.

Usually inhibition stands for the share of the control response that was lost under treatment. For orientation: IC50 means the midpoint of a concentration-inhibition curve.
